Test results: the NIST ThermoML archive (doi:10.1016/j.tca.2004.11.015)

Assay: xn = mol fraction of the nth substance listed
Conditions: 101.33 kPa, Liquid, Vibrating tube method

NCCO [2-aminoethan-1-ol] + CO
mass density [kg/m3]
Conditions | 318.15 K | 323.15 K | 328.15 K | 333.15 K | 338.15 K | 343.15 K | 348.15 K | 353.15 K
x1 = 0.012 | – | 768.02 | 763.16 | 758.24 | – | – | – | –
x1 = 0.031 | – | 776.31 | 771.48 | 766.6 | – | – | – | –
x1 = 0.05 | – | 784.19 | 779.4 | 774.56 | 769.67 | 764.72 | 759.71 | 754.62
x1 = 0.1 | – | 804.01 | 799.31 | 794.56 | 789.76 | 784.91 | 780 | 775.02
x1 = 0.15 | – | 822.17 | 817.54 | 812.87 | 808.15 | 803.39 | 798.56 | 793.68
x1 = 0.2002 | – | 839.11 | 834.54 | 829.94 | 825.28 | 820.58 | 815.83 | 811.02
x1 = 0.2501 | – | 854.48 | 849.96 | 845.4 | 840.8 | 836.17 | 831.49 | 826.76
x1 = 0.2974 | 872.55 | 868.11 | 863.65 | 859.14 | 854.6 | 850 | 845.36 | 840.69
x1 = 0.3502 | 886.63 | 882.25 | 877.83 | 873.37 | 868.88 | 864.35 | 859.77 | 855.14
x1 = 0.4001 | 898.67 | 894.33 | 889.95 | 885.53 | 881.08 | 876.6 | 872.07 | 867.5
x1 = 0.4427 | 908.45 | 904.14 | 899.79 | 895.41 | 890.99 | 886.55 | 882.06 | 877.53
x1 = 0.4502 | 910.28 | 905.97 | 901.63 | 897.26 | 892.86 | 888.42 | 883.94 | 879.42
x1 = 0.5002 | 920.74 | 916.46 | 912.15 | 907.81 | 903.44 | 899.04 | 894.6 | 890.11
x1 = 0.5501 | 930.55 | 926.3 | 922.03 | 917.72 | 913.38 | 909.01 | 904.62 | 900.18
x1 = 0.6001 | 939.84 | 935.62 | 931.37 | 927.1 | 922.8 | 918.47 | 914.1 | 909.7
x1 = 0.6501 | 948.51 | 944.31 | 940.1 | 935.85 | 931.59 | 927.29 | 922.96 | 918.6
x1 = 0.7005 | 956.89 | 952.72 | 948.53 | 944.32 | 940.08 | 935.81 | 931.52 | 927.19
x1 = 0.7479 | 963.92 | 959.78 | 955.62 | 951.43 | 947.22 | 942.98 | 938.72 | 934.42
x1 = 0.8002 | 971.82 | 967.71 | 963.57 | 959.42 | 955.24 | 951.03 | 946.8 | 942.54
x1 = 0.8502 | 978.32 | 974.23 | 970.12 | 965.99 | 961.84 | 957.66 | 953.46 | 949.23
x1 = 0.8967 | 984.55 | 980.48 | 976.39 | 972.29 | 968.16 | 964.01 | 959.83 | 955.62
x1 = 0.9501 | 990.85 | 986.81 | 982.75 | 978.67 | 974.57 | 970.45 | 966.3 | 962.12
